Results: patent US20050130252A1, “Stabilized susceptibility tests of aerobic pathogens” (Wyeth Holdings Corporation, priority 2003, published 2005)
≈ marks a conversion by molar mass, not a printed value. Like-named read-outs stand apart in the source and are kept apart here.

Tested on: E. faecalis ATCC 29212
Test: Broth microdilution MIC
Assay type: cell-based, Enterococcus faecalis
Conditions: for MIC: Enterococcus faecalis
Procedure: The process for preparing susceptibility test medium are the following steps: • a. Preparing Mueller Hinton Broth II medium by adding 22 grams powdered media to 1.0 liter distilled water; • b. Autoclaving (121° C., 15 psi, 15 minutes) and cooling the medium; • c. Adding Oxyrase® up to about 10% final volume and keeping at 35-37° C. in an incubator for 30 minutes; • d. Adding about 50 μL to each well of a 96 well microtiter plate; • e. Weighing drug and adding broth to drug to bring up to about (standard 128 μg/ml); • f. Adding 50 μL of the drug to the first column of the titer plate; • g. Diluting by two-fold serial diluting across or down the plate. • h. Preparing a Prompt™ inoculum at 10^8 CFU/ml; • i. Diluting inoculum 1:100 in the broth at […] in 9.9 ml (1:100) is 10^6 colony forming units (CFU) forming the adjusted inoculum; • j. Adding 50 μL of the adjusted inoculum to the wells of the microtiter plate; • k. Incubating the plates at 35-37° C. for 18-22 hours; and • l. Reading, with the unaided eye, the MIC.
The in vitro activities of tigecycline and control antibiotics were determined by the broth microdilution method as recommended by the NCCLS. (National Committee for Clinical Laboratory Standards, 2003. Methods for Dilution Antimicrobial Susceptibility Tests for Bacteria That Grow Aerobically; Approved Standards: M7-A6, Sixth ed, vol. 23., National Committee for Clinical Laboratory Standards Wayne, Pa.) was used for the standard procedures. MBH with 5% lysed horse blood was used for testing S. pneumoniae and Haemophilus Test Medium was used for testing H. influenzae. Oxyrase® (Oxyrase Inc, Mansfield, Ohio) was used according to the manufacturer's instructions by adding 1 ml of Oxyrase® to 50 ml of media. Media age studies were performed by preparing MHB in multiple flasks, then storing the media under various conditions. MICs were usually performed in duplicate on each day of testing. Storage under anaerobic conditions was conducted in an anaerobic chamber (MACS MG 1000, Don Whitley Scientific LTD). The pH of the media was determined by pH meter (Corning 430). A comparison of the in vitro activity of tigecycline by agar and broth dilution methodolgies with and without Oxyrase® against clinical isolates is shown in Table 1.

[1] = Table 8, E. faecalis ATCC 29212, Mueller Hinton Broth + Oxyrase, n = 240
[2] = Table 8, E. faecalis ATCC 29212, Mueller Hinton Broth, n = 320
[3] = Table 9, E. faecalis ATCC 29212, Mueller Hinton Broth + Oxyrase, n = 31
[4] = Table 9, E. faecalis ATCC 29212, Mueller Hinton Broth, n = 96

Compound CN(C)c1cc(NC(=O)CNC(C)(C)C)c(O)c2c1C[C@H]1C[C@H]3[C@H](N(C)C)C(O)=C(C(N)=O)C(=O)[C@@]3(O)C(O)=C1C2=O [Tigecycline, tigecycline] has an MIC (ATCC29212, 0 h, E. faecalis ATCC 29212, Day 0, Pre-prepared media, room temperature, N = 6) of 0.25 µg/mL (≈ 0.427 µM), an MIC (ATCC29212, 0 h, E. faecalis ATCC 29212, Day 0, media Fresh from Powder 2° C., N = 6) of 0.03 µg/mL (≈ 0.0512 µM) and an MIC (ATCC29212, 0 h, E. faecalis ATCC 29212, Day 0, media Fresh from Powder, room temperature, N = 6) of 0.03 µg/mL (≈ 0.0512 µM). It also gave an MIC (ATCC29212, 24 h, E. faecalis ATCC 29212, Day 1, Pre-prepared media, room temperature, N = 6) of 0.25 µg/mL (≈ 0.427 µM), an MIC (ATCC29212, 24 h, E. faecalis ATCC 29212, Day 1, media Fresh from Powder 2° C., N = 6) of 0.03 µg/mL (≈ 0.0512 µM) and an MIC (ATCC29212, 24 h, E. faecalis ATCC 29212, Day 1, media Fresh from Powder, room temperature, N = 6) of 0.03 to 0.06 µg/mL (≈ 0.0512 to 0.102 µM). It also gave an MIC (ATCC29212, 168 h, E. faecalis ATCC 29212, Day 7, Pre-prepared media, room temperature, N = 6) of 0.25 µg/mL (≈ 0.427 µM), an MIC (ATCC29212, 168 h, E. faecalis ATCC 29212, Day 7, media Fresh from Powder 2° C., N = 6) of 0.06 µg/mL (≈ 0.102 µM) and an MIC (ATCC29212, 168 h, E. faecalis ATCC 29212, Day 7, media Fresh from Powder, room temperature, N = 6) of 0.12 to 0.25 µg/mL (≈ 0.205 to 0.427 µM). For the same compound, the MIC (ATCC29212, 336 h, E. faecalis ATCC 29212, Day 14, Pre-prepared media, room temperature, N = 6) was 0.25 to 0.5 µg/mL (≈ 0.427 to 0.854 µM), the MIC (ATCC29212, 336 h, E. faecalis ATCC 29212, Day 14, media Fresh from Powder 2° C., N = 6) was 0.25 µg/mL (≈ 0.427 µM) and the MIC (ATCC29212, 336 h, E. faecalis ATCC 29212, Day 14, media Fresh from Powder, room temperature, N = 6) was 0.25 µg/mL (≈ 0.427 µM). For the same compound, the MIC (ATCC29212, 336 h, read-out: Minimal Inhibitory Concentration, E. faecalis ATCC29212, media Aged Aerobic (2 weeks at RT under room air), N = 4) was 0.25 µg/mL (≈ 0.427 µM), the MIC (ATCC29212, 504 h, E. faecalis ATCC 29212, Day 21, Pre-prepared media, room temperature, N = 6) was 0.25 to 0.5 µg/mL (≈ 0.427 to 0.854 µM) and the MIC (ATCC29212, 504 h, E. faecalis ATCC 29212, Day 21, media Fresh from Powder 2° C., N = 6) was 0.25 µg/mL (≈ 0.427 µM). It also gave an MIC (ATCC29212, 504 h, E. faecalis ATCC 29212, Day 21, media Fresh from Powder, room temperature, N = 6) of 0.25 µg/mL (≈ 0.427 µM), an MIC (ATCC29212, 672 h, E. faecalis ATCC 29212, Day 28, Pre-prepared media, room temperature, N = 6) of 0.25 to 0.5 µg/mL (≈ 0.427 to 0.854 µM) and an MIC (ATCC29212, 672 h, E. faecalis ATCC 29212, Day 28, media Fresh from Powder 2° C., N = 6) of 0.12 to 0.25 µg/mL (≈ 0.205 to 0.427 µM). For the same compound, the MIC (ATCC29212, 672 h, E. faecalis ATCC 29212, Day 28, media Fresh from Powder, room temperature, N = 6) was 0.12 to 0.25 µg/mL (≈ 0.205 to 0.427 µM), the MIC (ATCC29212, read-out: Minimal Inhibitory Concentration (modal value), E. faecalis ATCC29212, Aged Media + Oxyrase, N = 8) was 0.12 µg/mL and the MIC (ATCC29212, read-out: Minimal Inhibitory Concentration (modal value), E. faecalis ATCC29212, Aged media, N = 8) was 0.5 µg/mL (≈ 0.854 µM). For the same compound, the MIC (ATCC29212, read-out: Minimal Inhibitory Concentration (modal value), E. faecalis ATCC29212, Fresh Media + Oxyrase, N = 8) was 0.06 µg/mL, the MIC (ATCC29212, read-out: Minimal Inhibitory Concentration (modal value), E. faecalis ATCC29212, Freshly Prepared Media, N = 8) was 0.06 to 0.12 µg/mL (≈ 0.102 to 0.205 µM) and the MIC (ATCC29212, read-out: Minimal Inhibitory Concentration, E. faecalis ATCC 29212, 2% Oxyrase) was 0.03 µg/mL (≈ 0.0512 µM). The MIC (ATCC29212, read-out: Minimal Inhibitory Concentration, E. faecalis ATCC29212, Aged Media + Oxyrase, N = 8) was 0.12 µg/mL, the MIC (ATCC29212, read-out: Minimal Inhibitory Concentration, E. faecalis ATCC29212, Aged media, N = 8) was 0.25 to 0.5 µg/mL (≈ 0.427 to 0.854 µM) and the MIC (ATCC29212, read-out: Minimal Inhibitory Concentration, E. faecalis ATCC29212, Commercially Prepared media, N = 4) was 0.12 to 0.25 µg/mL (≈ 0.205 to 0.427 µM). The MIC (ATCC29212, read-out: Minimal Inhibitory Concentration, E. faecalis ATCC29212, Fresh Media + Oxyrase, N = 8) was 0.06 µg/mL, the MIC (ATCC29212, read-out: Minimal Inhibitory Concentration, E. faecalis ATCC29212, Freshly Prepared Media, N = 8) was 0.06 to 0.12 µg/mL (≈ 0.102 to 0.205 µM) and the MIC (ATCC29212, read-out: Minimal Inhibitory Concentration, E. faecalis ATCC29212, Freshly Prepared media, N = 4) was 0.03 µg/mL (≈ 0.0512 µM). It also gave an MIC (ATCC29212, read-out: Minimal Inhibitory Concentration, E. faecalis ATCC 29212, MHB II + 0.05% Catalase) of 0.5 µg/mL, an MIC (ATCC29212, read-out: Minimal Inhibitory Concentration, E. faecalis ATCC 29212, MHB II + 0.05% L-ascorbic Acid) of 1 µg/mL and an MIC (ATCC29212, read-out: Minimal Inhibitory Concentration, E. faecalis ATCC 29212, MHB II + 0.05% L-cysteine) of 0.12 µg/mL. It also gave an MIC (ATCC29212, read-out: Minimal Inhibitory Concentration, E. faecalis ATCC 29212, MHB II + 0.05% Sodium Pyruvate) of 0.25 µg/mL, an MIC (ATCC29212, read-out: Minimal Inhibitory Concentration, E. faecalis ATCC 29212, MHB II + 0.05% Thioglycolate) of 0.12 µg/mL and an MIC (ATCC29212, read-out: Minimal Inhibitory Concentration, E. faecalis ATCC 29212, MHB II + 2% Oxyrase) of 0.03 to 0.06 µg/mL. The MIC (ATCC29212, read-out: Minimal Inhibitory Concentration, E. faecalis ATCC 29212, Mueller Hinton Broth II (Fresh)) was 0.06 to 0.12 µg/mL (≈ 0.102 to 0.205 µM), the MIC (ATCC29212, read-out: Minimal Inhibitory Concentration, E. faecalis ATCC 29212, No Oxyrase) was 0.25 µg/mL (≈ 0.427 µM) and the MIC (ATCC29212, read-out: Minimal Inhibitory Concentration, E. faecalis ATCC29212, media Aged Anaerobic, N = 4) was 0.03 µg/mL (≈ 0.0512 µM). The “Number of Occurrences of MIC 0.03 ug/ml” value [1] was 5, the “Number of Occurrences of MIC 0.06 ug/ml” value [1] was 203 and the “Number of Occurrences of MIC 0.12 ug/ml” value [1] was 28. The “Number of Occurrences of MIC 0.25 ug/ml” value [1] was 2, the “Number of Occurrences of MIC 0.5 ug/ml” value [1] was 1 and the “Number of Occurrences of MIC 1 ug/ml” value [1] was 1. For the same compound, the “Number of Occurrences of MIC 0.06 ug/ml” value [2] was 1, the “Number of Occurrences of MIC 0.12 ug/ml” value [2] was 96 and the “Number of Occurrences of MIC 0.25 ug/ml” value [2] was 140. For the same compound, the “Number of Occurrences of MIC 0.5 ug/ml” value [2] was 16, the “Number of Occurrences of MIC 1 ug/ml” value [2] was 64 and the “Number of Occurrences of MIC 2 ug/ml” value [2] was 3. The “Number of Occurrences of MIC 0.03 ug/ml” value [3] was 6, the “Number of Occurrences of MIC 0.06 ug/ml” value [3] was 14 and the “Number of Occurrences of MIC 0.12 ug/ml” value [3] was 11. For the same compound, the “Number of Occurrences of MIC 0.12 ug/ml” value [4] was 25, the “Number of Occurrences of MIC 0.25 ug/ml” value [4] was 52 and the “Number of Occurrences of MIC 0.5 ug/ml” value [4] was 19.
